Holding throughout (type): functional
The subject of test [1] is HL-60. The experiment in a line: […] human HL60 cells assessed NBT positive cells at 0.02 uM after 72 hrs by NBT reduction test.
Test [2] relates to HL-60. The experiment in a line: Induction of human HL60 cells differentiation assessed as number of cells at 0.02 uM after 72 hrs by NBT reduction test.
Test [3] relates to HL-60. In words: […] human HL60 cells assessed NBT positive cells at 0.01 uM after 72 hrs by NBT reduction test.
Test [4] deals with HL-60. In words: Induction of human HL60 cells differentiation assessed as number of cells at 0.01 uM after 72 hrs by NBT reduction test.

Regarding `C=C1/C(=C\C=C2/CCC[C@]3(C)[C@@H]([C@H](C)CCCC(C)(C)O)CC[C@@H]23)C[C@@H](O)C[C@@H]1O` [CALCITRIOL], the Activity in test [1] was 27.9%; in test [2], 6.8 10^5/ml; in test [3] it was 15.6%; in test [4], 8 10^5/ml.

The values above are taken from ChEMBL document CHEMBL1139057, “Rotenoids and flavonoids with anti-invasion of HT1080, anti-proliferation of U937, and differentiation-inducing activity in HL-60 from Erycibe expansa” (Bioorg Med Chem, 2007).
